The text below walks through data of article PMC6570535 (ACS infectious diseases, 2019).

No end group written: not given here. Bounds are passed on as bounds.

The target of assay [1] is T1, fsr QS circuitry (Enterococcus faecalis, UniProt A0ACD6TCR9). Conditions: read-out: EC50 [95% CI]; previously published analog shown for comparison; ref [19]; cited from earlier work.
In assay [2] the target is T1, fsr QS circuitry. The experiment in a line: β-galactosidase cell-based bacterial reporter assay, QS activation. As to conditions: E. faecalis pGelE-lacZ reporter strain. Background: A reporter such as luciferase makes a cellular process visible.
The target of assay [3] is T1, fsr QS circuitry. The experiment in a line: β-galactosidase reporter assay, inhibition of competitor GBAP signal. As to conditions: competition with GBAP. The assay is classed as cell-based, E. faecalis.

For “Ac-GBAP-Des(Q1N2) (Ac-SPNIFGQWM; also: cyclic, ring not given here) [Peptide 2]”, in the assay with fsr QS circuitry [1], the EC50 was 1.01 nM.
In the case of Ac-GBAP-Des(Q1N2)[N-MeG8] [Peptide 7], on fsr QS circuitry [2], the “activity as activator” value is given as “lost all activity”. Further, at fsr QS circuitry [3], the “inhibitory activity” value is “neither of these three analogs exhibit any inhibitory activity”.
For Ac-GBAP-Des(Q1N2)[N-MeQ9] [Peptide 8], the “activity as activator” value at fsr QS circuitry [2] was “lost all activity”. Further, the “inhibitory activity” value at fsr QS circuitry [3] is “neither of these three analogs exhibit any inhibitory activity”.
As to GBAP-F7A, the EC50 at fsr QS circuitry [1] was over 1000 nM.

By EC50 is commonly meant the concentration giving half of the maximal effect.
